# Source: ChEMBL document CHEMBL5154644, “Design, Synthesis, and Structure-Activity Relationship Optimization of Pyrazolopyrimidine Amide Inhibitors of Phosphoinositide 3-Kinase γ (PI3Kγ)” (J Med Chem, 2022)
# Molecular target: T1, Phosphatidylinositol 4,5-bisphosphate 3-kinase catalytic subunit gamma isoform (Homo sapiens, UniProt P48736)
# Assay: Inhibition of PI3Kgamma (unknown origin) in […] stimulated human THP-1 cells assessed as reduction in Akt phosphorylation level at Ser473 residue preincubated for 60 mins followed by rhMCP-1 stimulation and measured after 2 mins by AlphaLisa assay
# Type: cell-based
# Conditions: not given
# T1 sequence (P48736 whole entry, canonical isoform): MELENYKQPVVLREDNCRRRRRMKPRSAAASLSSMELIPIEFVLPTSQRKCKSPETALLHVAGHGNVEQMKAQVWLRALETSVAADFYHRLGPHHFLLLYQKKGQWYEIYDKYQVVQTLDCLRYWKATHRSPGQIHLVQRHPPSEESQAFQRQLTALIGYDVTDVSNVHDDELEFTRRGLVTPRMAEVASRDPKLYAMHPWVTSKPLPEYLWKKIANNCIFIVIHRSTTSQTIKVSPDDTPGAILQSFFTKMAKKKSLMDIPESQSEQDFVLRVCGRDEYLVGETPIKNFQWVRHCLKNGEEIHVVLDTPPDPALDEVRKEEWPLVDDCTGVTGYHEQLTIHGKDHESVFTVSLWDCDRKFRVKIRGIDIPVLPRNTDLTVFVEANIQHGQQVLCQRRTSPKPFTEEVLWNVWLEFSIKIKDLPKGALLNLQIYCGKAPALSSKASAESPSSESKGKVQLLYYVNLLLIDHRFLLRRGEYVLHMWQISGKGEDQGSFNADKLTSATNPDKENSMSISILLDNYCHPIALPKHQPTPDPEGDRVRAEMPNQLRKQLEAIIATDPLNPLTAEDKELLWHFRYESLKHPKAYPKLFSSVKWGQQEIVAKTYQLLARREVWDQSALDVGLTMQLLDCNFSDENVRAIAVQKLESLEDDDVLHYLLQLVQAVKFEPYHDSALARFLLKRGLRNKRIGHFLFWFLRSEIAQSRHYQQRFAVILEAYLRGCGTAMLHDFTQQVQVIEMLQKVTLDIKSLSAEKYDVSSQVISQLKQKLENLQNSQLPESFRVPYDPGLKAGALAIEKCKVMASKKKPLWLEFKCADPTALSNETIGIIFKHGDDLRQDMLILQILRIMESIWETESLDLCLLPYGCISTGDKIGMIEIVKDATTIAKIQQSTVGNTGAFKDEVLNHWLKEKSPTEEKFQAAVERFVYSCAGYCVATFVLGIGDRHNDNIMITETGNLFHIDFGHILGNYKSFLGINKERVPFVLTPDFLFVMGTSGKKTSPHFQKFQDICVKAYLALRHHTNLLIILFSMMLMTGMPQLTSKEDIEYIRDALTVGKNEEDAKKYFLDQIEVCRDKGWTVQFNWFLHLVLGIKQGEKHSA
row,IC50 [nM],SMILES
1,72,C[C@@H](C1CC1)N1Cc2cc(-c3ccn4nc(N)c(C(=O)N[C@@H](CO)C5CC5)c4n3)cc(OC(F)(F)F)c2C1=O
2,52,C[C@@H](C1CC1)N1Cc2cc(-c3ccn4nc(N)c(C(=O)N[C@H]5CC[C@](O)(C(F)(F)F)CC5)c4n3)cc(NS(C)(=O)=O)c2C1=O

# Molecular target: Phosphatidylinositol 4,5-bisphosphate 3-kinase catalytic subunit beta isoform (Homo sapiens, UniProt P42338)
# Assay: Inhibition of PI3Kbeta (unknown origin) using PIP2 as substrate preincubated for 1 hr followed by substrate addition and measured after 60 mins in presence of ATP by ADP-glo assay
# Conditions: not given
# Phosphatidylinositol 4,5-bisphosphate 3-kinase catalytic subunit beta isoform, sequence (P42338 whole entry, canonical isoform): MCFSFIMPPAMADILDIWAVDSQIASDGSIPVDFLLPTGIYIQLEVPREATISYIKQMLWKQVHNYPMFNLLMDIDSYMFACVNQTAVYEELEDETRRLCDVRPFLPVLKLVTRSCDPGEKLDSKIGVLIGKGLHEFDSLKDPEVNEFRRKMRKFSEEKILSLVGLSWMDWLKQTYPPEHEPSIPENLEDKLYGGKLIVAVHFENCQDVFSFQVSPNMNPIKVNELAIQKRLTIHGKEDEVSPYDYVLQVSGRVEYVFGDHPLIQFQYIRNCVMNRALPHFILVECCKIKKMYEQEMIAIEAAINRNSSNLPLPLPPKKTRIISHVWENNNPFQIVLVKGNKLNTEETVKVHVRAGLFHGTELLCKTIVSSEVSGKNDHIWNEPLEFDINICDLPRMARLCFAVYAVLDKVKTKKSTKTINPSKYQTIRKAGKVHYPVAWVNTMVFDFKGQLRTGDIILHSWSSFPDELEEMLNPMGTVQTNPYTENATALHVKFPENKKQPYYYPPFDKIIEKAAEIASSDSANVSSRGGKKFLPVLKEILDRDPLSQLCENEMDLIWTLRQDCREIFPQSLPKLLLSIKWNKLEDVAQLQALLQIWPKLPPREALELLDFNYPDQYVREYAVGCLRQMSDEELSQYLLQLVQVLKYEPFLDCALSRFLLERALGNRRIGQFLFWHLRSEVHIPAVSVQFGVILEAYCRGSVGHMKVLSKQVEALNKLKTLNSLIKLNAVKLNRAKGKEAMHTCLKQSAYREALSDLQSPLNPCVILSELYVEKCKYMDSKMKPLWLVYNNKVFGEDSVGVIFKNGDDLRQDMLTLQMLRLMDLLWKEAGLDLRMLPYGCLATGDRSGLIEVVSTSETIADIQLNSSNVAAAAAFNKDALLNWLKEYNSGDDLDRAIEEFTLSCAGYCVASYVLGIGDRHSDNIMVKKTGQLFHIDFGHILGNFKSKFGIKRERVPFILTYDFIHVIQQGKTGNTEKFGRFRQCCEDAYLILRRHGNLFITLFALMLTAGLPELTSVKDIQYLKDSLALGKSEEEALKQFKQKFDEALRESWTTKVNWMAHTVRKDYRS
row,IC50 [nM],SMILES
1,8550,C[C@@H](C1CC1)N1Cc2cc(-c3ccn4nc(N)c(C(=O)N[C@@H](CO)C5CC5)c4n3)cc(OC(F)(F)F)c2C1=O
2,9780,C[C@@H](C1CC1)N1Cc2cc(-c3ccn4nc(N)c(C(=O)N[C@H]5CC[C@](O)(C(F)(F)F)CC5)c4n3)cc(NS(C)(=O)=O)c2C1=O

# Organism: Homo sapiens
# Assay: Selectivity ratio of IC50 for inhibition of PI3Kbeta (unknown origin) to IC50 for inhibition of PI3Kgamma (unknown origin)
# Conditions: not given
row,Ratio IC50,SMILES
1,3040,C[C@@H](C1CC1)N1Cc2cc(-c3ccn4nc(N)c(C(=O)N[C@@H](CO)C5CC5)c4n3)cc(OC(F)(F)F)c2C1=O
2,4560,C[C@@H](C1CC1)N1Cc2cc(-c3ccn4nc(N)c(C(=O)N[C@H]5CC[C@](O)(C(F)(F)F)CC5)c4n3)cc(NS(C)(=O)=O)c2C1=O

# Molecular target: T2, hERG (Homo sapiens, UniProt Q12809)
# Assay: Inhibition of human ERG at 10 uM by patch clamp assay relative to control
# Type: toxicity
# Conditions: not given
# T2 sequence (Q12809 whole entry): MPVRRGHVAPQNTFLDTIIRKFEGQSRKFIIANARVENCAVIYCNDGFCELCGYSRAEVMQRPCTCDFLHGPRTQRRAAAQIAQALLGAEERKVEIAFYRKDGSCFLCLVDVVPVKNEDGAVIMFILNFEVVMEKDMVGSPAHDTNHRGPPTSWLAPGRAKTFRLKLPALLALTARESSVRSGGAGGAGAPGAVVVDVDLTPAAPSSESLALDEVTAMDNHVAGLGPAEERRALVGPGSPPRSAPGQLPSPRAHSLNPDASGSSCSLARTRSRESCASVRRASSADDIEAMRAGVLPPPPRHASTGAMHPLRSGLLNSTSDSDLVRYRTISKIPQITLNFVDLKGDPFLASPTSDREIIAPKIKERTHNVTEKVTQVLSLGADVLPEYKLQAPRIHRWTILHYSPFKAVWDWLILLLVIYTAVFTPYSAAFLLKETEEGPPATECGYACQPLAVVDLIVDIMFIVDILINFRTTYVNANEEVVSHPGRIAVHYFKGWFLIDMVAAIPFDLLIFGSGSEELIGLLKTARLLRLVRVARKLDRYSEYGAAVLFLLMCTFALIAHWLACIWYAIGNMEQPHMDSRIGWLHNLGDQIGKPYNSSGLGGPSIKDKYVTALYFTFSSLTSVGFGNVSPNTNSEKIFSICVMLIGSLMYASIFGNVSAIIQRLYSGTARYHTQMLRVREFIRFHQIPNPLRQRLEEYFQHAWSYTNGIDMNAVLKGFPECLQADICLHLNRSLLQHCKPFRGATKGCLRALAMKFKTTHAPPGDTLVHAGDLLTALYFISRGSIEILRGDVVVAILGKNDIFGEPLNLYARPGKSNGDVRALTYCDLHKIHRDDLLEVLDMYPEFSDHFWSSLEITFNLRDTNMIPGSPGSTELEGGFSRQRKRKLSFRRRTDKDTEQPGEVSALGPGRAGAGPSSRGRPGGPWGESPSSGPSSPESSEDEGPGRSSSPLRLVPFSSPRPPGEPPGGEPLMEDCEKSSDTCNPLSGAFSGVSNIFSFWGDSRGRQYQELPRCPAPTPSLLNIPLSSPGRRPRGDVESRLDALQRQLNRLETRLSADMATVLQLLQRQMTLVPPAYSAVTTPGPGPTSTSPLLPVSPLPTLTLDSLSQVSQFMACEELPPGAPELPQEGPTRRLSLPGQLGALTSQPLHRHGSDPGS
row,SMILES,inhibition at 10 µM [%]
1,C[C@@H](C1CC1)N1Cc2cc(-c3ccn4nc(N)c(C(=O)N[C@H]5CC[C@](O)(C(F)(F)F)CC5)c4n3)cc(NS(C)(=O)=O)c2C1=O,68

# Molecular target: T2, hERG
# Assay: Inhibition of human ERG at 3 uM by patch clamp assay relative to control
# Type: toxicity
# Conditions: not given
row,SMILES,inhibition at 3 µM [%]
1,C[C@@H](C1CC1)N1Cc2cc(-c3ccn4nc(N)c(C(=O)N[C@H]5CC[C@](O)(C(F)(F)F)CC5)c4n3)cc(NS(C)(=O)=O)c2C1=O,45

# Organism: Homo sapiens
# Assay: Selectivity ratio of IC50 for inhibition of PI3Kalpha (unknown origin) to IC50 for inhibition of PI3Kgamma (unknown origin)
# Conditions: not given
row,Ratio IC50,SMILES
1,733,C[C@@H](C1CC1)N1Cc2cc(-c3ccn4nc(N)c(C(=O)N[C@@H](CO)C5CC5)c4n3)cc(OC(F)(F)F)c2C1=O
2,1880,C[C@@H](C1CC1)N1Cc2cc(-c3ccn4nc(N)c(C(=O)N[C@H]5CC[C@](O)(C(F)(F)F)CC5)c4n3)cc(NS(C)(=O)=O)c2C1=O

# Tested on: not listed separately
# Assay: Metabolic stability in rat hepatocyte assessed as intrinsic clearance per 10^8 cells at 0.5 uM by LC-MS/MS analysis
# Type: ADME, cell-based
# Conditions: hepatocytes
row,hepatocyte intrinsic clearance [µL/min],SMILES
1,< 1.2,C[C@@H](C1CC1)N1Cc2cc(-c3ccn4nc(N)c(C(=O)N[C@@H](CO)C5CC5)c4n3)cc(OC(F)(F)F)c2C1=O
2,11,C[C@@H](C1CC1)N1Cc2cc(-c3ccn4nc(N)c(C(=O)N[C@H]5CC[C@](O)(C(F)(F)F)CC5)c4n3)cc(NS(C)(=O)=O)c2C1=O

# Tested on: not listed separately
# Assay: Metabolic stability in human hepatocytes assessed as intrinsic clearance per 10^6 cells at 0.5 uM by LC-MS/MS analysis
# Type: ADME, cell-based, Hepatocyte
# Conditions: read-out: CLH
row,hepatocyte CLint at 0.5 µM [µL/min/1e6 cells],SMILES
1,4.05,C[C@@H](C1CC1)N1Cc2cc(-c3ccn4nc(N)c(C(=O)N[C@@H](CO)C5CC5)c4n3)cc(OC(F)(F)F)c2C1=O
2,1.9,C[C@@H](C1CC1)N1Cc2cc(-c3ccn4nc(N)c(C(=O)N[C@H]5CC[C@](O)(C(F)(F)F)CC5)c4n3)cc(NS(C)(=O)=O)c2C1=O

# Molecular target: T1, Phosphatidylinositol 4,5-bisphosphate 3-kinase catalytic subunit gamma isoform
# Assay: Inhibition of PI3Kgamma in SDF-1alpha stimulated human whole blood assessed as reduction in phospho-AKT kinase activity preincubated for 1 hr followed by SDF-1alpha stimulation and measured after 2 mins by flow cytometric analysis
# Type: tissue-based
# Conditions: not given
row,IC50 [nM],SMILES
1,750,C[C@@H](C1CC1)N1Cc2cc(-c3ccn4nc(N)c(C(=O)N[C@@H](CO)C5CC5)c4n3)cc(OC(F)(F)F)c2C1=O
2,210,C[C@@H](C1CC1)N1Cc2cc(-c3ccn4nc(N)c(C(=O)N[C@H]5CC[C@](O)(C(F)(F)F)CC5)c4n3)cc(NS(C)(=O)=O)c2C1=O

# Molecular target: T1, Phosphatidylinositol 4,5-bisphosphate 3-kinase catalytic subunit gamma isoform
# Assay: Inhibition of PI3Kgamma (unknown origin) using PIP2 as substrate preincubated for 1 hr followed by substrate addition and measured after 60 mins in presence of ATP by ADP-glo assay
# Conditions: not given
row,IC50 [nM],SMILES
1,2.8,C[C@@H](C1CC1)N1Cc2cc(-c3ccn4nc(N)c(C(=O)N[C@@H](CO)C5CC5)c4n3)cc(OC(F)(F)F)c2C1=O
2,2.1,C[C@@H](C1CC1)N1Cc2cc(-c3ccn4nc(N)c(C(=O)N[C@H]5CC[C@](O)(C(F)(F)F)CC5)c4n3)cc(NS(C)(=O)=O)c2C1=O

# Molecular target: T3, Phosphatidylinositol 4,5-bisphosphate 3-kinase catalytic subunit delta isoform (Homo sapiens, UniProt O00329)
# T3 sequence (O00329 whole entry): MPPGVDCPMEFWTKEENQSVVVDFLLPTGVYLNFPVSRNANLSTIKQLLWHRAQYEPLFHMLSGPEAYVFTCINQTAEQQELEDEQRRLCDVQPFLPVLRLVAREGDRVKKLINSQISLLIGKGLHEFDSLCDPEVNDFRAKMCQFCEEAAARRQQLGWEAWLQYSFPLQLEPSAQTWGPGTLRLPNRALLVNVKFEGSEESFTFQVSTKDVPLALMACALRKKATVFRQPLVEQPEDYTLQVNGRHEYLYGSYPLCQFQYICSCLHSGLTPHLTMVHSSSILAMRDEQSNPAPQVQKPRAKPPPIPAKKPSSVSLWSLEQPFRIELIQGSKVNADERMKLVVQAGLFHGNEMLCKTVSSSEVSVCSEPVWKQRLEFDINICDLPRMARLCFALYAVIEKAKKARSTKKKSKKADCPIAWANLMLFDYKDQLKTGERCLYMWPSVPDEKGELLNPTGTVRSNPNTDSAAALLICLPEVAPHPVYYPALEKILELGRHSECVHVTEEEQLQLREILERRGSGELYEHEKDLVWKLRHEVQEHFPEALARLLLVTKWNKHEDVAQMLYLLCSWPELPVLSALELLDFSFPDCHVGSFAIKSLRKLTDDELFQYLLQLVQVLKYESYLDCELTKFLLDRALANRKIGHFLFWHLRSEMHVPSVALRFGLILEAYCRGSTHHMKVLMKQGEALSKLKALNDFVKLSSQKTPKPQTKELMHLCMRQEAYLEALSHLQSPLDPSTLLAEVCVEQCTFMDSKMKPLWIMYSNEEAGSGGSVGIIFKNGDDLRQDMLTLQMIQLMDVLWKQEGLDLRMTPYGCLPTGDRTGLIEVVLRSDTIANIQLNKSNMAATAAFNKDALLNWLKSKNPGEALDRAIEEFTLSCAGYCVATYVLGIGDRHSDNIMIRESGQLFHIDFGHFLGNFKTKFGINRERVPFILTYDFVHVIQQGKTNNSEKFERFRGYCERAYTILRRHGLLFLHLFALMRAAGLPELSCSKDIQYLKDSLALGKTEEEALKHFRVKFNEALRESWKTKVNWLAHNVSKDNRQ
# Assay: Inhibition of PI3Kdelta (unknown origin) using PIP2 as substrate preincubated for 1 hr followed by substrate addition and measured after 60 mins in presence of ATP by ADP-glo assay
# Conditions: not given
row,IC50 [nM],SMILES
1,1790,C[C@@H](C1CC1)N1Cc2cc(-c3ccn4nc(N)c(C(=O)N[C@@H](CO)C5CC5)c4n3)cc(OC(F)(F)F)c2C1=O
2,1060,C[C@@H](C1CC1)N1Cc2cc(-c3ccn4nc(N)c(C(=O)N[C@H]5CC[C@](O)(C(F)(F)F)CC5)c4n3)cc(NS(C)(=O)=O)c2C1=O

# Tested on: not listed separately
# Assay: Hepatic clearance in Sprague-Dawley rat by LC-MS/MS analysis
# Type: ADME
# Conditions: in vivo
row,CLH [mL/min/kg],SMILES
1,21.7,C[C@@H](C1CC1)N1Cc2cc(-c3ccn4nc(N)c(C(=O)N[C@@H](CO)C5CC5)c4n3)cc(OC(F)(F)F)c2C1=O
2,23.3,C[C@@H](C1CC1)N1Cc2cc(-c3ccn4nc(N)c(C(=O)N[C@H]5CC[C@](O)(C(F)(F)F)CC5)c4n3)cc(NS(C)(=O)=O)c2C1=O

# Molecular target: CYP3A4 (Homo sapiens, UniProt P08684)
# Assay: in vitro
# Conditions: human liver microsomes, probe midazolam
# Description: Time dependent inhibition of CYP3A4 in human liver microsomes at 10 uM using midazolam as substrate preincubated for 30 mins in presence of NADPH by LC/MS/MS analysis relative to control
# CYP3A4, sequence (P08684 whole entry): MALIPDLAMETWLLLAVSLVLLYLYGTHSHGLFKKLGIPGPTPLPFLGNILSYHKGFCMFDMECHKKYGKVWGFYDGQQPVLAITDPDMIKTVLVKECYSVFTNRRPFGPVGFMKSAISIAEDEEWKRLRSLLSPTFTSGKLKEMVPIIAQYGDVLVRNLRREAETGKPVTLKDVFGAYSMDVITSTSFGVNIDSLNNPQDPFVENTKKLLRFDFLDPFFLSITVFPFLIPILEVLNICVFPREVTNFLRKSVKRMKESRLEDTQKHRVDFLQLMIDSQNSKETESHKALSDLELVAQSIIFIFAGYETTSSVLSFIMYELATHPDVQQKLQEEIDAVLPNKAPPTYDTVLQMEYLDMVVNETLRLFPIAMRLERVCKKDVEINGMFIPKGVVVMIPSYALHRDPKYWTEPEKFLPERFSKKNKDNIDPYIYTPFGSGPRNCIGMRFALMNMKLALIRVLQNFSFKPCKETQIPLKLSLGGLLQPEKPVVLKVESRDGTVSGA
row,"inhibition at 30 min, 10 µM [%]",SMILES
1,6,C[C@@H](C1CC1)N1Cc2cc(-c3ccn4nc(N)c(C(=O)N[C@@H](CO)C5CC5)c4n3)cc(OC(F)(F)F)c2C1=O
2,17,C[C@@H](C1CC1)N1Cc2cc(-c3ccn4nc(N)c(C(=O)N[C@H]5CC[C@](O)(C(F)(F)F)CC5)c4n3)cc(NS(C)(=O)=O)c2C1=O

# Molecular target: Phosphatidylinositol 4,5-bisphosphate 3-kinase catalytic subunit alpha isoform (Homo sapiens, UniProt P42336)
# Assay: Inhibition of PI3Kalpha (unknown origin) using PIP2 as substrate preincubated for 1 hr followed by substrate addition and measured after 60 mins in presence of ATP by ADP-glo assay
# Conditions: not given
# Phosphatidylinositol 4,5-bisphosphate 3-kinase catalytic subunit alpha isoform, sequence (P42336 whole entry, canonical isoform): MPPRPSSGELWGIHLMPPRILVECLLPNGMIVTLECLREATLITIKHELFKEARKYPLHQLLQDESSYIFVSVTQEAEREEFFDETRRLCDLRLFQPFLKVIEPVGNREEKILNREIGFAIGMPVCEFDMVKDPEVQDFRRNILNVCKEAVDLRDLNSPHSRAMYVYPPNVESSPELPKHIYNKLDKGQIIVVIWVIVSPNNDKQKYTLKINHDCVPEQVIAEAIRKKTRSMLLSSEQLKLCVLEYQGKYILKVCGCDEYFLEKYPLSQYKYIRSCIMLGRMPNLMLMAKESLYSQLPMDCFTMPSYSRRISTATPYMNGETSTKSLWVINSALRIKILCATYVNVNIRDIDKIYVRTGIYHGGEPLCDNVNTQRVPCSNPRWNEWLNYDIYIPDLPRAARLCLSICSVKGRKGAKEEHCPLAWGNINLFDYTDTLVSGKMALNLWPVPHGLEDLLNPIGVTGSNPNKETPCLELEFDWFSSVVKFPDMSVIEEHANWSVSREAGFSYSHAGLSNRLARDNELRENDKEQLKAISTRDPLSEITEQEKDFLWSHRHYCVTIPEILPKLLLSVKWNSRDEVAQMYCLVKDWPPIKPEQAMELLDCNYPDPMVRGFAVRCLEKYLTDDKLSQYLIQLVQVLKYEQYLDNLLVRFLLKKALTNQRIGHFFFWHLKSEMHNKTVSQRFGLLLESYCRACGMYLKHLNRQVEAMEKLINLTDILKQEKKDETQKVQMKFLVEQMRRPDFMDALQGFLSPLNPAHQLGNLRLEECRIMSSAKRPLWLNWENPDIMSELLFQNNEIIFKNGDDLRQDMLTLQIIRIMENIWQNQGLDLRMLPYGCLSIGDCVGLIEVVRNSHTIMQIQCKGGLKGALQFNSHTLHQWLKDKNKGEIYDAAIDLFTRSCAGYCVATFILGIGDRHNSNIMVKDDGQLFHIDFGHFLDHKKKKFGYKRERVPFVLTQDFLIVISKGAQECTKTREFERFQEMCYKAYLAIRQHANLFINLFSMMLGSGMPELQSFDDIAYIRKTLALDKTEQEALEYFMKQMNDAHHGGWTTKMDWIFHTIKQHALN
row,IC50 [nM],SMILES
1,2060,C[C@@H](C1CC1)N1Cc2cc(-c3ccn4nc(N)c(C(=O)N[C@@H](CO)C5CC5)c4n3)cc(OC(F)(F)F)c2C1=O
2,4030,C[C@@H](C1CC1)N1Cc2cc(-c3ccn4nc(N)c(C(=O)N[C@H]5CC[C@](O)(C(F)(F)F)CC5)c4n3)cc(NS(C)(=O)=O)c2C1=O
